Two compounds from patent publication US6177592A, “Compounds” (priority 1997, dated 2001) can be followed below.

Entries after “also recorded” stand apart in the source; their conditions may differ.

Experiment [1] concerns HL-60 cells. Kind of experiment: Apoptosis in HL-60 cells (apoptic bodies, DNA fragmentation). Particulars: for apoptic bodies in the cells: at each of the cell-growth-inhibiting concentrations. Format: cell-based, human. The procedure: (1) Each 0.5 ml of 0.2 mM CM, 0.8 mM CM or 1.6 mM CM was added to 4.5 ml of RPMI 1640 medium containing 10% of fetal calf serum and 2.5×10^5HL-60 cells (promyelocytic leukemia cell) (ATCC CCL-240) and incubated at 37° C. for 24 hours or 48 hours in the presence of 5% carbon dioxide gas and the numbers of viable cells were measured.
(§1) (2) To each of the wells of a 96-well microtiter plate was added 8, 40, 200 or 1000 μM aqueous solution of GM or 10 μl of water as a control. HL-60 (ATCC CCL-240) was suspended in an RPMI 1640 medium containing 10% of fetal calf serum to make the concentration 5×10^4 cells/ml and each 90 μl thereof was placed in each well of the above-mentioned microtiter plate and incubated at 37° C. for 48 hours in the presence of 5% carbon dioxide. Incubation was conducted for four hours more after addition of 10 μl of a solution (5 mg/ml) of 3-(4,5-dimethylthiazol-2-yl)-2,5-diphenyltetrzolium bromide (MTT; manufactured by Sigma) in a phosphate-buffered saline solution and the state of growth of the cells was observed under a microscope. Further, 100 μl of 2-propanol containing 0.04N hydrochloric acid was added followed by stirring and an absorbance at 590 nm was measured.
(4) HL-60 cells (ATCC CCL240) which were incubated at 37° C. in an RPMI 1640 medium (manufactured by Nissui) containing 10% of fetal calf serum (manufactured by Gibco) treated at 56° C. for 30 minutes were suspended in the above medium to make the concentration 2.5×10^5cells/4.5 ml. To this suspension was added 0.5 ml of 100 μM aqueous solution of GM (final concentration: 10 μM) followed by incubating at 37° C. in the presence of 5% carbon dioxide gas for 24 hours, 48 hours and 72 hours.
(§2) (5) To each well of the 96-well microtiter plate was added 4.12, 12.3, 37.0, 111, 333 or 1000 μM aqueous solution of GD or 10 μl of water as a control. HL-60 (ATCC CCL-240) was suspended in an RPMI 1640 medium containing 10% of fetal calf serum to make the concentration 5×10^4 cells/ml and each 90 μl thereof was placed in each well of the above-mentioned microtiter plate followed by incubating at 37° C. for 48 hours in the presence of 5% carbon dioxide gas. The incubation was conducted for four hours more after addition of 10 μl of 5 mg/ml solution of 3-(4,5-dimethylthiazol-2-yl)-2,5-diphenyltetrazolium bromide (MTT; manufactured by Sigma) in a phosphate-buffered saline solution and the state of growth of the cells was observed under a microscope. In the meanwhile, 100 μl of 2-propanol containing 0.04N HCl was added followed by well stirring and the absorbance at 590 nm was measured.

Experiment [2] relates to Sarcoma-180. The experiment in a line: Sarcoma-180/ICR mice macrobiotic effect. Type of experiment: in vivo.
For experiment [3], the system named is HL-60 cells. The experiment in a line: MTT growth inhibition of HL-60. Type of experiment: cell-based, human. To be noted: Homo sapiens, HL-60, 48 hours; for activity at 10 µM / activity at 20 µM / activity at 40 µM: read-out: degree of cell growth (ratio of absorbance at 590 nm of sample-added section to control). Here is the method:
as §1
(3) To each well of the 96-well microtiter plate was added 100, 200 or 400 μM aqueous solution of GM or CM or 10 μl of water as a control and the inhibition activity of growth of HL-60 was measured by the same method as mentioned in Example 5-(2). The degree of cell growth was, however, expressed in terms of the ratio (%) of the absorbance at 590 nm of the sample-added section to that of the water-added section (the control).
as §2
(6) Cyclopentenone and L-cysteine hydrochloride were dissolved in a phosphate buffered saline solution (pH 7.2) to make their concentrations 55 mM and 80 mM, respectively and made to react at 37° C. for 15 minutes at pH 7.2. Apart of the reaction solution was analyzed by a reversed phase HPLC using a column of TSK gel ODS-80Ts (4.6 mm×250 mm; manufactured by Tosoh)at the flow rate of 1 ml/minute using 0.1% aqueous solution of trifluoroacetic acid as a mobile phase whereupon no cyclopentenone was detected. This reaction solution was a solution containing 55 mM of CD.
Degree of cell growth was, however, expressed in terms of the ratio (%) of the absorbance at 590 nm of the section to which the sample was added to that of the control where water was added.

The subject of experiment [4] is Bacillus subtilis IFO 3021. The experiment in a line: Antibacterial activity, viable cell numbers. Type of experiment: cell-based. The procedure:
Bacillus subtilis IFO 3021 was incubated (by mans of a seed culture) overnight in a sensitive bouillon medium (manufactured by Nissui). Absorbance at 600 nm was measured and viable cell numbers were calculated from the previously-prepared calibration curve showing the relation between the viable cell numbers and absorbance at 600 nm. The seed-cultured liquid was diluted with a fresh sensitive bouillon medium to make the concentration 1×10^6 cells/ml and each 180 μl thereof was placed in each well of the 96-well microtiter plate. Each 20 μl of aqueous solution of GM (4 mg/ml or 2 mg/ml) or water was added to each well followed by allowing to a stationary culture at 37° C. for one night (main incubation) In the meanwhile, a part of the seed culture liquid was diluted with sterilized water, spread onto a sensitive bouillon agar plate medium and incubated at 37° C. for one night and the colonies were counted to measure the precise viable cell numbers.
The cultured liquid in each of the wells was diluted with sterilized water, spread onto a sensitive bouillon agar plate medium and incubated at 37° C. for one night and the colonies were counter to measure the viable cell numbers.

Experiment [5] has as its system EAC. Kind of experiment: EAC/DDY mice macrobiotic effect. Format: in vivo.
The subject of experiment [6] is mouse leukemia P-388. Kind of experiment: Mouse leukemia P-388 survival (macrobiotic effect) in DBA/2 mice. Particulars: 10 mg/kg/day i.p., five days. Type of experiment: in vivo. The procedure:
GM was diluted with a physiological saline solution to a predetermined concentration and subjected to the following tests.
(2) Mouse leukemia P-388 (1.1×10^6 cells/mouse) was intraperitoneally injected to female DBA/2 mice (body weight: about 20 g) of seven weeks age. After that, GM, CM, GD or CD (10 mg/kg/day) was intraperitoneally injected for consecutive five clays. In the meanwhile, a physiological saline solution was intraperitoneally injected to the control group by the same manner. In the two group each consisting of eight mice, survived numbers, average survived days and macrobiotic rate of the mice were calculated.

As for `N[C@@H](CSC1C=C(O)C(=O)C1)C(=O)O` (stereo partly drawn) [CM], the “apoptic bodies in the cells” value in experiment [1] is on record as “apoptic bodies were detected”. In addition, the macrobiotic effect entry in experiment [2] is “same macrobiotic effect”. Moreover, in experiment [3], the activity at 10 µM worked out at 48.9%, the activity at 20 µM was 16.1% and the activity at 40 µM came out at 2.8%. The “antibacterial activity (in words)” value in experiment [4] (compared with GM) is listed as “same results”. For the same compound, in experiment [5], the macrobiotic effect entry is recorded as “same macrobiotic effect”. Moreover, the “macrobiotic effect (average survived days)” value in experiment [6] was “significant macrobiotic effect”.
On to `N[C@@H](CCC(=O)N[C@@H](CSC1C=C(O)C(=O)C1)C(=O)NCC(=O)O)C(=O)O` (stereo partly drawn) [GM, 2-hydroxy-4-glutathion-S-yl-2-cyclopenten-1-one], for which, in experiment [1] (10 μM GM, agarose gel electrophoresis), the “fragmentation of DNA into a chromatin unit” value was “fragmentation of DNA into a chromatin unit was observed”. In addition, the “apoptic bodies in the cells” value in experiment [1] is “apoptic bodies were formed in the cells; also recorded: aggregation of nuclei, reduction in size of the cells and production of apoptic bodies were detected”. Also, the macrobiotic effect result in experiment [2] is on record as “same macrobiotic effect”. Besides, in experiment [3], the activity at 10 µM was found to be 14.8%, the activity at 20 µM came to 1.8% and the activity at 40 µM turned out to be 3.2%. Further, the IC100 in experiment [3] (MTT, final concentration, read-out: concentration at which growth of HL-60 cells was completely inhibited) worked out at 4 µM. Further, the viable cell numbers in experiment [4] (400 μg/ml final, one night at 37° C., water 1.3×10^8) is listed as 4.4×10^7 cells/ml. Also, the macrobiotic effect entry in experiment [5] is “same macrobiotic effect”. Besides, the “macrobiotic effect (average survived days)” value in experiment [6] was “significant macrobiotic effect”.
